The supplement of paper PMC10307832

Columns and labels:
Assay in all cases: relative viability (nuclei count vs DMSO), 5 days (fraction); higher = more cells survive
HCC-44 = system: HCC-44
Outline: (§1)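 Each reported value is a median over duplicate plates. It expresses relative viability: treated-well nuclei count divided by vehicle-well nuclei count. Lung cancer cell lines in 1536-well plates were dosed by pin tool a day after seeding, alone with one drug or with a fixed anchor-drug dose plus five library-drug doses (not always all listed) in √10 steps, and nuclei were counted after 5 days.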

NCI-H1975 = system: NCI-H1975
Outline: as §1

LOU-NH91 = system: LOU-NH91
Outline: as §1

NCI-H1755 = system: NCI-H1755
Outline: as §1

LU99A = system: LU99A
Outline: as §1

NCI-H460 = system: NCI-H460
Outline: as §1

NCI-H1563 = system: NCI-H1563
Outline: as §1

NCI-H1437 = system: NCI-H1437
Outline: as §1

HCC-366 = system: HCC-366
Outline: as §1

BEN = system: BEN
Outline: as §1

NCI-H1734 = system: NCI-H1734
Outline: as §1

NCI-H441 = system: NCI-H441
Outline: as §1

NCI-H358 = system: NCI-H358
Outline: as §1

NCI-H838 = system: NCI-H838
Outline: as §1

NCI-H2023 = system: NCI-H2023
Outline: as §1

NCI-H1651 = system: NCI-H1651
Outline: as §1

EKVX = system: EKVX
Outline: as §1

CAL-12T = system: CAL-12T
Outline: as §1

NCI-H2085 = system: NCI-H2085
Outline: as §1

NCI-H1355 = system: NCI-H1355
Outline: as §1

NCI-H1650 = system: NCI-H1650
Outline: as §1

## C=C1C(=O)O[C@@H](CCCCCCCC)[C@@H]1C(=O)O [C-75] + C[C@@H](Oc1cc(-c2cnn(C3CCNCC3)c2)cnc1N)c1c(Cl)ccc(F)c1Cl [Crizotinib] (partner 1 µM)
HCC-44; first compound 0.08 µM
  relative viability: 0.787
HCC-44; first compound 0.253 µM
  relative viability: 0.815
HCC-44; first compound 0.8 µM
  relative viability: 0.795
HCC-44; first compound 2.53 µM
  relative viability: 0.659
HCC-44; first compound 8 µM
  relative viability: 0.719
NCI-H1975; first compound 0.08 µM
  relative viability: 0.987
NCI-H1975; first compound 0.253 µM
  relative viability: 0.929
NCI-H1975; first compound 0.8 µM
  relative viability: 0.908
NCI-H1975; first compound 2.53 µM
  relative viability: 0.773
NCI-H1975; first compound 8 µM
  relative viability: 0.935
LOU-NH91; first compound 0.08 µM
  relative viability: 0.743
LOU-NH91; first compound 0.253 µM
  relative viability: 0.696
LOU-NH91; first compound 0.8 µM
  relative viability: 0.726
LOU-NH91; first compound 2.53 µM
  relative viability: 0.682
LOU-NH91; first compound 8 µM
  relative viability: 0.742
NCI-H1755; first compound 0.08 µM
  relative viability: 0.87
NCI-H1755; first compound 0.253 µM
  relative viability: 0.853
NCI-H1755; first compound 0.8 µM
  relative viability: 0.836
NCI-H1755; first compound 2.53 µM
  relative viability: 0.541
NCI-H1755; first compound 8 µM
  relative viability: 0.824
LU99A; first compound 0.08 µM
  relative viability: 0.538
LU99A; first compound 0.253 µM
  relative viability: 0.616
LU99A; first compound 0.8 µM
  relative viability: 0.49
LU99A; first compound 2.53 µM
  relative viability: 0.395
LU99A; first compound 8 µM
  relative viability: 0.398
NCI-H460; first compound 0.08 µM
  relative viability: 0.88
NCI-H460; first compound 0.253 µM
  relative viability: 1.07
NCI-H460; first compound 0.8 µM
  relative viability: 0.696
NCI-H460; first compound 8 µM
  relative viability: 0.696
NCI-H1563; first compound 0.08 µM
  relative viability: 0.801
NCI-H1563; first compound 0.253 µM
  relative viability: 0.909
NCI-H1563; first compound 0.8 µM
  relative viability: 0.865
NCI-H1563; first compound 2.53 µM
  relative viability: 0.826
NCI-H1563; first compound 8 µM
  relative viability: 0.931
NCI-H1437; first compound 0.08 µM
  relative viability: 0.859
NCI-H1437; first compound 0.253 µM
  relative viability: 0.968
NCI-H1437; first compound 0.8 µM
  relative viability: 0.936
NCI-H1437; first compound 2.53 µM
  relative viability: 0.983
NCI-H1437; first compound 8 µM
  relative viability: 0.936
HCC-366; first compound 0.08 µM
  relative viability: 0.508
HCC-366; first compound 0.253 µM
  relative viability: 0.76
HCC-366; first compound 0.8 µM
  relative viability: 0.5
HCC-366; first compound 8 µM
  relative viability: 0.509
BEN; first compound 0.08 µM
  relative viability: 0.897
BEN; first compound 0.253 µM
  relative viability: 0.952
BEN; first compound 0.8 µM
  relative viability: 0.921
BEN; first compound 2.53 µM
  relative viability: 0.755
BEN; first compound 8 µM
  relative viability: 0.825
NCI-H1734; first compound 0.08 µM
  relative viability: 0.692
NCI-H1734; first compound 0.253 µM
  relative viability: 0.624
NCI-H1734; first compound 0.8 µM
  relative viability: 0.618
NCI-H1734; first compound 2.53 µM
  relative viability: 0.557
NCI-H1734; first compound 8 µM
  relative viability: 0.69
NCI-H441; first compound 0.08 µM
  relative viability: 0.857
NCI-H441; first compound 0.253 µM
  relative viability: 0.762
NCI-H441; first compound 0.8 µM
  relative viability: 0.556
NCI-H441; first compound 2.53 µM
  relative viability: 0.46
NCI-H441; first compound 8 µM
  relative viability: 0.585
NCI-H358; first compound 0.08 µM
  relative viability: 0.63
NCI-H358; first compound 0.253 µM
  relative viability: 0.696
NCI-H358; first compound 0.8 µM
  relative viability: 0.59
NCI-H358; first compound 2.53 µM
  relative viability: 0.565
NCI-H358; first compound 8 µM
  relative viability: 0.618
NCI-H838; first compound 0.08 µM
  relative viability: 0.786
NCI-H838; first compound 0.253 µM
  relative viability: 0.561
NCI-H838; first compound 0.8 µM
  relative viability: 0.807
NCI-H838; first compound 2.53 µM
  relative viability: 0.792
NCI-H838; first compound 8 µM
  relative viability: 0.789
NCI-H2023; first compound 0.08 µM
  relative viability: 0.654
NCI-H2023; first compound 0.253 µM
  relative viability: 0.767
NCI-H2023; first compound 0.8 µM
  relative viability: 0.698
NCI-H2023; first compound 2.53 µM
  relative viability: 0.444
NCI-H2023; first compound 8 µM
  relative viability: 0.626
NCI-H1651; first compound 0.08 µM
  relative viability: 0.793
NCI-H1651; first compound 0.253 µM
  relative viability: 0.882
NCI-H1651; first compound 0.8 µM
  relative viability: 0.852
NCI-H1651; first compound 2.53 µM
  relative viability: 0.731
NCI-H1651; first compound 8 µM
  relative viability: 0.889
EKVX; first compound 0.08 µM
  relative viability: 1.01
EKVX; first compound 0.253 µM
  relative viability: 0.983
EKVX; first compound 0.8 µM
  relative viability: 0.897
EKVX; first compound 2.53 µM
  relative viability: 0.85
EKVX; first compound 8 µM
  relative viability: 0.893
CAL-12T; first compound 0.08 µM
  relative viability: 0.597
CAL-12T; first compound 0.253 µM
  relative viability: 0.626
CAL-12T; first compound 0.8 µM
  relative viability: 0.586
CAL-12T; first compound 8 µM
  relative viability: 0.849
NCI-H2085; first compound 0.08 µM
  relative viability: 0.739
NCI-H2085; first compound 0.253 µM
  relative viability: 0.803
NCI-H2085; first compound 0.8 µM
  relative viability: 0.878
NCI-H2085; first compound 2.53 µM
  relative viability: 0.656
NCI-H2085; first compound 8 µM
  relative viability: 0.878
NCI-H1355; first compound 0.08 µM
  relative viability: 1.05
NCI-H1355; first compound 0.253 µM
  relative viability: 1.01
NCI-H1355; first compound 0.8 µM
  relative viability: 0.97
NCI-H1355; first compound 2.53 µM
  relative viability: 1.1
NCI-H1355; first compound 8 µM
  relative viability: 1.01
NCI-H1650; first compound 0.08 µM
  relative viability: 0.961
NCI-H1650; first compound 0.253 µM
  relative viability: 1.1
NCI-H1650; first compound 0.8 µM
  relative viability: 0.972
NCI-H1650; first compound 2.53 µM
  relative viability: 1.12
NCI-H1650; first compound 8 µM
  relative viability: 1.21
